Measured values reported in PMC12016938, “A small molecule PKCε inhibitor reduces hyperalgesia induced by paclitaxel or opioid withdrawal” (JCI Insight, 2025).
Where “and” joins values, the source holds several entries; their conditions need not be identical. Equal entries are not always repeated. Entries after “also recorded” stand apart in the source; their conditions may differ.

Assays:
[1] = system: hyperalgesia induced by morphine withdrawal; assay: Reversal of hyperalgesia due to morphine withdrawal, von Frey SUDO; format: in vivo, C57BL/6J mice
Text: We next tested if CP612 reverses hyperalgesia induced by withdrawal from repeated administration of morphine in male and female C57BL/6J mice. Since the pain thresholds of mice receiving repeated administration of saline were not affected by treatment with vehicle or CP612 injection (Figure 6), mice in this experiment were only treated with morphine. […] Both male and female mice that received vehicle continued to show hyperalgesia up to 4 weeks after the last injection of morphine.

[2] = target: PKCδ (Homo sapiens, UniProt Q05655); assay: scanMax kinome panel, PKCδ; format: binding; parameters: purchased Eurofins-DiscoverX; conditions: 200 nM CP612; read-out: scanMax % of control, PKCδ
Description: CP612 was screened for kinome specificity at 200 nM against 468 kinases using the scanMax assay panel from Eurofins-DiscoverX. CP612 inhibited 10 other WT kinases besides PKCε, all to < 10% of control: CLK1 (CDC Like Kinase 1), CLK4, PKN1 (Protein kinase N1), PKN2, PKCδ, PKCη, PKCθ, PRKG2 (Protein Kinase CGMP-Dependent 2), ROCK1, and ROCK2.

[3] = system: PKCε-dependent mechanical hyperalgesia; assay: Hyperalgesia induced by the PKCε activator ψεRACK, Randall-Selitto paw pressure test; conditions: for Force applied that led to paw withdrawal: one paw
Description: Thirty minutes later, rats were administered vehicle (5 μL, intradermally) or CP612 (1 μg/5 μL, intradermally) (Figure 3). We measured nociceptive thresholds at the same site, at baseline, 30 minutes after the administration of ψεRACK (time 0) and 15, 30, and 60 minutes after the administration of vehicle or CP612.
Mechanical nociceptive thresholds in rats were quantified by the Randall-Selitto paw pressure test using an Ugo Basile Analgesy-Meter. This device applies a linearly increasing mechanical force to the dorsum or plantar region of the rat hind paw. The mechanical nociceptive threshold is defined as the force in grams at which a rat withdraws its paw. […] For studies testing nociceptive thresholds after the PKCε activator ψεRACK, or after the cancer chemotherapeutic drug paclitaxel, rats were placed into cylindrical acrylic restrainers for 40 minutes before starting each session. The restrainers had lateral ports to allow access to the hind paw, as previously described ([35]), and pain thresholds were measured by applying force to the dorsum of the hind paw. Prior to starting experiments, baseline mechanical nociceptive threshold was obtained as the mean of 2–3 readings on 1 hind paw in each rat.

[4] = target: T1, PKCε (Homo sapiens, UniProt Q02156); assay: PKCε activity with increasing ATP and CP612 (ATP competition); format: biochemical; parameters: His; AVI; made in house; host or cells: Sf9 cells; conditions: for Kinase activity (% control): PKCε, log [CP612]
T1 sequence (Q02156 1-737): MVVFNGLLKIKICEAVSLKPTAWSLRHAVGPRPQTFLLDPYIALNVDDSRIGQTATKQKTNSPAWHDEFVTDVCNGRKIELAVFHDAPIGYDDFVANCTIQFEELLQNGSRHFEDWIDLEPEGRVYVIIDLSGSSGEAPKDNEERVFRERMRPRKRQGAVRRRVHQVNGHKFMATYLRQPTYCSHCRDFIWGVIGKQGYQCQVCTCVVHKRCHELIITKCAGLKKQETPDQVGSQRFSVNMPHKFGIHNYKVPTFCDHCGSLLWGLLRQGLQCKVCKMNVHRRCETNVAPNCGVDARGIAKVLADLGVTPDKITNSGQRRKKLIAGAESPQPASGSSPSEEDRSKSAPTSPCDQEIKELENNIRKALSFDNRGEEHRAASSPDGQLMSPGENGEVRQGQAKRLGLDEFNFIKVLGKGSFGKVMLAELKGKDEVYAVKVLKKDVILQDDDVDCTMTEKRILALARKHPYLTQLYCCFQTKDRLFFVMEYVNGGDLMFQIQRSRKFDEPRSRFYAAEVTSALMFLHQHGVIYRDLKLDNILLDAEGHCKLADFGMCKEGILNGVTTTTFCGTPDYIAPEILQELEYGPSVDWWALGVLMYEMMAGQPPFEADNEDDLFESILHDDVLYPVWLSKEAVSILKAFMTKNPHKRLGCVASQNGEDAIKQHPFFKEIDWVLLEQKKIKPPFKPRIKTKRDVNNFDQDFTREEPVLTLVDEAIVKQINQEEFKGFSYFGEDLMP
Description: Therefore, we assayed PKCε activity with increasing concentrations of ATP and in the presence of increasing concentrations of CP612.
Kinase assays. CP612 was assayed against His-AVI–tagged human PKCε (1 nM) produced in Sf9 cells, and ROCK1 (Carna Biosciences; 5 nM) using the Lance-FRET kinase assay system (PerkinElmer Revvity). Other human recombinant PKCs (SignalChem Biotech) were assayed in triplicate at the following concentrations: PKCβII 1.6 nM, PKCγ 500 pM, PKCδ 5 nM, PKCθ 500 pM, and PKCζ 500 pM. PKCs were incubated in a 15 μL reaction volume with kinase buffer (20 mM Tris-HCL [pH 7.4], 10 mM MgCl2, 0.25 mM EGTA, 0.1 mg/mL BSA, and 0.15% Triton X-100), 50 nM ULight-labeled CREBtide […] (PerkinElmer, TRF0107, Revvity), and test compound. […] after 60 minutes with 10 μL of 2.5× Stop Solution/Detection Mix containing 20 mM EDTA and 4 nM LANCE Ultra Europium anti–phospho-[…] peptide antibody (PerkinElmer, TRF0200, Revvity). After incubation at 27°C for another 60 minutes, phosphorylation was detected using a FlexStation 3 Microplate Reader (Molecular Devices) in LANCE TR-FRET mode (excitation = 340 nm, emission = 665 nm) and expressed as relative fluorescence units (RFU). The percentage of inhibition was calculated as: (signal without test compound − signal with test compound)/(signal without test compound − signal without ATP) × 100. The Z’ factor for this assay ranged between 0.72 and 0.86.

PKCδ, sequence (Q05655 whole entry): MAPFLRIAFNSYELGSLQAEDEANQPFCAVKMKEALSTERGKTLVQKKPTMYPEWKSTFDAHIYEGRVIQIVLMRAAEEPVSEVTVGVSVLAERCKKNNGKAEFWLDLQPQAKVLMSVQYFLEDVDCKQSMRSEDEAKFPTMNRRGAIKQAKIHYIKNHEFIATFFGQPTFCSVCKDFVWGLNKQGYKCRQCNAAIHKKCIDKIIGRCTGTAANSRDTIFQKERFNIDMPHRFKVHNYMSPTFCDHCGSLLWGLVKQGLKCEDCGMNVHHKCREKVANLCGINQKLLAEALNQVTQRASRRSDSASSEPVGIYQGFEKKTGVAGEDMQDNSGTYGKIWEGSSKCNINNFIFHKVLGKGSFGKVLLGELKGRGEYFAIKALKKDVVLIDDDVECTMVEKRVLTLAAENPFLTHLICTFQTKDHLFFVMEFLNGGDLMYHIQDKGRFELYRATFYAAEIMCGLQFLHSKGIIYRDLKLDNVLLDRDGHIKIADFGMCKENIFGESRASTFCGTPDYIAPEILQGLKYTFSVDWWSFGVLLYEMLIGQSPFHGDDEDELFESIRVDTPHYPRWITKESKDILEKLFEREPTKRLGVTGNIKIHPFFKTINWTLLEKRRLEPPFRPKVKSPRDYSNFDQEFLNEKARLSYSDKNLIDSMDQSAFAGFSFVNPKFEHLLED

With `N[C@H](CNC(=O)C1(c2ccc(Cl)cc2)CCCC1)c1ccc(C(=O)Nc2ccncc2)cc1` [CP612] the “Effect on established morphine-withdrawal hyperalgesia” value ([1]; male and female mice, CP612 20 mg/kg i.p. 2 weeks after last morphine injection) was “reversed”, the “Duration of reversal of hyperalgesia” value ([1]; single dose CP612 20 mg/kg i.p.) was 2 weeks and the remaining binding at 0.2 µM [2] was less than 10%. The “Force applied that led to paw withdrawal” value ([3]; 0min (30 min after ψεRACK, before CP612)) was 90 grams and 100 grams and 96.7 grams, the “Force applied that led to paw withdrawal” value ([3]; 5min after CP612 1µg/5µL intradermally) was 120 grams and 130 grams and 115 grams and 105 grams and the “Force applied that led to paw withdrawal” value ([3]; 10min after CP612 1µg/5µL intradermally) was 100 grams and 110 grams and 130 grams and 115 grams and 120 grams and 135 grams. The “Force applied that led to paw withdrawal” value ([3]; 15min after CP612 1µg/5µL intradermally) was 90 grams and 125 grams and 130 grams and 110 grams and 115 grams and 100 grams, the “Force applied that led to paw withdrawal” value ([3]; 30min after CP612 1µg/5µL intradermally) was 120 grams and 123.3 grams and 125 grams and 115 grams and the “Force applied that led to paw withdrawal” value ([3]; 60min after CP612 1µg/5µL intradermally) was 105 grams and 110 grams and 115 grams and 130 grams and 120 grams. For the same compound, the “Force applied that led to paw withdrawal” value ([3]; baseline (before ψεRACK and CP612)) was 130 grams and 120 grams and 125 grams, the “Effect on ψεRACK-induced hyperalgesia” value ([3]; male rats, CP612 1 μg/5 μL intradermally 30 min after ψεRACK, up to 60 minutes) was “reduced; also recorded: near-complete reversal; also recorded: attenuated” and the “Increase of EC50 for ATP” value ([4]; 300 nM CP612) was 40 fold. For the same compound, the “Kinase activity (% control)” value ([4]; [ATP] 0.183 µM, M -8.523, 0.183 µM) was 47.534 % control and 24.462 % control and 35.552 % control, the “Kinase activity (% control)” value ([4]; [ATP] 0.73 µM, M -6, 0.73 µM) was 0.864 % control and 1.238 % control and the “Kinase activity (% control)” value ([4]; [ATP] 2.93 µM, M -5.523, 2.93 µM) was 0.280 % control and 0.321 % control. For the same compound, the “Kinase activity (% control)” value ([4]; [ATP] 2.93 µM, M -6, 2.93 µM) was 1.498 % control and 2.443 % control, the “Kinase activity (% control)” value ([4]; [ATP] 2.93 µM, M -6.523, 2.93 µM) was 4.077 % control and 4.559 % control and the “Kinase activity (% control)” value ([4]; [ATP] 2.93 µM, M -7, 2.93 µM) was 8.910 % control and 10.659 % control. For the same compound, the “Kinase activity (% control)” value ([4]; [ATP] 2.93 µM, M -7.523, 2.93 µM) was 20.262 % control and 21.135 % control, the “Kinase activity (% control)” value ([4]; [ATP] 2.93 µM, M -8, 2.93 µM) was 38.517 % control and 38.535 % control and the “Kinase activity (% control)” value ([4]; [ATP] 2.93 µM, M -8.523, 2.93 µM) was 63.294 % control and 62.615 % control. For the same compound, the “Kinase activity (% control)” value ([4]; [ATP] 11.67 µM, M -6, 11.67 µM) was 4.132 % control and 3.783 % control, the “Kinase activity (% control)” value ([4]; [ATP] 11.67 µM, M -6.523, 11.67 µM) was 10.586 % control and 9.278 % control and the “Kinase activity (% control)” value ([4]; [ATP] 11.67 µM, M -7, 11.67 µM) was 20.490 % control and 19.346 % control. The “Kinase activity (% control)” value ([4]; [ATP] 11.67 µM, M -7.523, 11.67 µM) was 38.625 % control and 36.759 % control, the “Kinase activity (% control)” value ([4]; [ATP] 11.67 µM, M -8, 11.67 µM) was 63.930 % control and 57.174 % control and the “Kinase activity (% control)” value ([4]; [ATP] 11.67 µM, M -8.523, 11.67 µM) was 75.246 % control and 100.913 % control and 75.385 % control. For the same compound, the “Kinase activity (% control)” value ([4]; [ATP] 49 µM, M -6, 49 µM) was 10.798 % control and 9.001 % control, the “Kinase activity (% control)” value ([4]; [ATP] 49 µM, M -6.523, 49 µM) was 25.250 % control and 20.067 % control and the “Kinase activity (% control)” value ([4]; [ATP] 49 µM, M -7, 49 µM) was 46.048 % control and 35.068 % control. The “Kinase activity (% control)” value ([4]; [ATP] 49 µM, M -7.523, 49 µM) was 52.594 % control and 73.832 % control and 56.661 % control, the “Kinase activity (% control)” value ([4]; [ATP] 49 µM, M -8, 49 µM) was 73.818 % control and 104.476 % control and 73.273 % control and the “Kinase activity (% control)” value ([4]; [ATP] 49 µM, M -8.523, 49 µM) was 102.193 % control and 87.045 % control. The “Kinase activity (% control)” value ([4]; [ATP] 187 µM, M -6, 187 µM) was 22.653 % control and 20.507 % control, the “Kinase activity (% control)” value ([4]; [ATP] 187 µM, M -6.523, 187 µM) was 46.882 % control and 37.693 % control and the “Kinase activity (% control)” value ([4]; [ATP] 187 µM, M -7, 187 µM) was 75.602 % control and 55.920 % control. The “Kinase activity (% control)” value ([4]; [ATP] 187 µM, M -7.523, 187 µM) was 95.087 % control and 100.001 % control and 71.937 % control, the “Kinase activity (% control)” value ([4]; [ATP] 187 µM, M -8, 187 µM) was 104.191 % control and 87.275 % control and the “Kinase activity (% control)” value ([4]; [ATP] 187 µM, M -8.523, 187 µM) was 106.161 % control and 97.914 % control. The “Kinase activity (% control)” value ([4]; [ATP] 750 µM, M -5.523, 750 µM) was 21.316 % control and 15.871 % control, the “Kinase activity (% control)” value ([4]; [ATP] 750 µM, M -6, 750 µM) was 49.150 % control and 51.871 % control and the “Kinase activity (% control)” value ([4]; [ATP] 750 µM, M -6.523, 750 µM) was 85.111 % control and 100.290 % control and 67.168 % control. The “Kinase activity (% control)” value ([4]; [ATP] 750 µM, M -7, 750 µM) was 106.868 % control and 86.984 % control, the “Kinase activity (% control)” value ([4]; [ATP] 750 µM, M -7.523, 750 µM) was 104.196 % control and 100.982 % control and the “Kinase activity (% control)” value ([4]; [ATP] 750 µM, M -8, 750 µM) was 105.985 % control and 104.633 % control. For the same compound, the “Kinase activity (% control)” value ([4]; [ATP] 750 µM, M -8.523, 750 µM) was 106.157 % control and 106.288 % control and the “Mode of inhibition of PKCε” value ([4]; rightward shift at higher [ATP]) was “competing with ATP”.
